Results: PubChem BioAssay (NCI)
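Compound exposure: 48 hours, 5 concentrations, 96-well plates. Here, GI50 denotes the concentration required for 50% inhibition of growth. TGI denotes the concentration required for complete inhibition of growth.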

Columns and labels:
Assay in all cases: NCI anticancer screen, dose series, 48 h; in the data active = GI50 below about 0.43 µM; inactive = the rest
[1] = tested on: HOP-92 NSCLC
[2] = tested on: A498 renal
[3] = tested on: A549 NSCLC
[4] = tested on: K-562 leukemia
[5] = tested on: MALME-3M melanoma
[6] = tested on: ACHN renal
[7] = tested on: SNB-75 CNS
[8] = tested on: IGROV1 ovarian
[9] = tested on: HCT-15 colon
[10] = tested on: NCI/ADR-RES ovarian

CC1=C[C@H]2c3c([nH]c4ccccc34)C(c3c[nH]c4ccccc34)[C@H]2CC1 (stereo partly drawn)
12.7 µM: TGI [4]
35.1 µM: TGI [5]
22.4 µM: TGI [8]
5.34 µM: TGI [1]
26.4 µM: TGI [3]
19 µM: TGI [7]
18.8 µM: TGI [9]
35.8 µM: TGI [2]
25 µM: TGI [6]

COc1ccc(/C=C/C(=O)/C=C/c2cc3ccccc3[nH]c2=O)cc1
18.8 µM: TGI [2]
inactive: GI50 [2] 5.73 µM | GI50 [10] 20.5 µM | GI50 [3] 3.16 µM | GI50 [4] 3.34 µM | GI50 [5] 9.17 µM | GI50 [6] 3.81 µM | GI50 [7] 4.33 µM | GI50 [8] 2.21 µM | GI50 [9] 2.41 µM
5.1 µM: TGI [8]
> 100 µM: TGI [10] | TGI [4]
15.5 µM: TGI [6]
35.6 µM: TGI [5]
12.6 µM: TGI [3]
18.7 µM: TGI [7]
7.69 µM: TGI [9]

CC1=CC(=O)CC2(C)CC[C@@H]3C[C@]12OC3(C)C (stereo partly drawn)
> 100 µM: TGI [1] | TGI [2] | TGI [3] | TGI [4] | TGI [5] | TGI [6] | TGI [7] | TGI [8] | TGI [9]

CC1/C=C/[C@@]2(C)CCC(C(C)(C)O)C2C(O)C[C@](C)(O)/C=C/C1 (stereo partly drawn)
> 100 µM: TGI [1] | TGI [2] | TGI [3] | TGI [4] | TGI [5] | TGI [6] | TGI [7] | TGI [8] | TGI [9]

CCC1CC2C(=O)N(c3ccccc3)C(=O)C2c2[nH]c3ccccc3c21 (stereo not drawn)
> 100 µM: TGI [3] | TGI [4] | TGI [6] | TGI [9]
30.6 µM: TGI [8]
38.7 µM: TGI [5]
67.7 µM: TGI [2]
13 µM: TGI [7]

COC(=O)/C=C(C)/C=C/C1OC(C)OCC1O (stereo not drawn)
> 100 µM: TGI [1] | TGI [2] | TGI [3] | TGI [4] | TGI [5] | TGI [6] | TGI [8] | TGI [9]

C=C(CC(NC(=O)c1ccc(C(CC)Cc2cnc3nc(N)nc(N)c3n2)cc1)C(=O)O)C(=O)O (stereo not drawn)
> 100 µM: TGI [3] | TGI [4] | TGI [6] | TGI [7] | TGI [8] | TGI [9]

O=C1c2ccccc2-[n+]2ccc3c([nH]c4ccccc43)c21
1.93 µM: TGI [7]
0.181 µM: TGI [5]
3.15 µM: TGI [2]
4.08 µM: TGI [6]
2.7 µM: TGI [3]
0.671 µM: TGI [8]
4.61 µM: TGI [10]
> 100 µM: TGI [9]
3.31 µM: TGI [4]

CC(C)(C)c1cc(C(O)(C(F)(F)F)C(F)(F)F)c2c(c1)C(C(F)(F)F)(C(F)(F)F)OC(C)(C(C)(C)C)N2 (stereo not drawn)
8.96 µM: TGI [7]
14.5 µM: TGI [9]
12.1 µM: TGI [6]
> 100 µM: TGI [8]
33.4 µM: TGI [3]
12.7 µM: TGI [4]
78.2 µM: TGI [5]

O=C(Cc1nc2ccccc2c(=O)n1-c1ccccc1Cl)c1ccncc1
71.7 µM: TGI [7]
> 100 µM: TGI [1] | TGI [2] | TGI [3] | TGI [4] | TGI [5] | TGI [6] | TGI [8] | TGI [9]

CC1=Nc2c(ccc3c2C(=O)c2ccccc2C3=O)NC(c2cccc3c2CCC3)C1 (stereo not drawn)
> 100 µM: TGI [1] | TGI [2] | TGI [3] | TGI [4] | TGI [5] | TGI [6] | TGI [7] | TGI [8] | TGI [9]

COc1ccc(NC(=O)CC2SC(=Nc3ccccc3C)NC2=O)c([N+](=O)[O-])c1 (stereo not drawn)
> 100 µM: TGI [1] | TGI [3] | TGI [4] | TGI [5] | TGI [6] | TGI [7] | TGI [8] | TGI [9]

CCOC(=O)C(=O)Nc1ccccc1C
> 100 µM: TGI [1] | TGI [2] | TGI [3] | TGI [4] | TGI [5] | TGI [6] | TGI [7] | TGI [8] | TGI [9]

CCCNC(=O)C1C(=O)C(=O)N(CCC)C1=O (stereo not drawn)
> 100 µM: TGI [1] | TGI [2] | TGI [3] | TGI [4] | TGI [5] | TGI [6] | TGI [7] | TGI [8] | TGI [9]

COC12CCC(=O)C=C1c1ccccc1N2C(C)=O (stereo not drawn)
> 100 µM: TGI [2] | TGI [3] | TGI [4] | TGI [6] | TGI [7] | TGI [8] | TGI [9]

CC(Oc1ccc2c(-c3ccccc3)cc(=O)oc2c1)C(=O)O (stereo not drawn)
> 100 µM: TGI [1] | TGI [2] | TGI [3] | TGI [4] | TGI [5] | TGI [6] | TGI [7] | TGI [8]

Cc1ccccc1NC(=O)c1cc(-c2ccc([N+](=O)[O-])cc2)nc(=S)[nH]1
> 100 µM: TGI [1] | TGI [3] | TGI [4] | TGI [5] | TGI [6] | TGI [8] | TGI [9]

COC/C=C\COC
> 100 µM: TGI [1] | TGI [3] | TGI [4] | TGI [5] | TGI [6] | TGI [7] | TGI [8] | TGI [9]

O=C(Nc1cc(C(F)(F)F)ccc1Cl)c1ccc(NC2=C(Cl)C(=O)N(Cc3ccccc3)C2=O)cc1
19.6 µM: TGI [4]
56.3 µM: TGI [1]
64.9 µM: TGI [6]
> 100 µM: TGI [2] | TGI [10] | TGI [3] | TGI [7] | TGI [9]
6.41 µM: TGI [8]
inactive: GI50 [1] 15.7 µM | GI50 [2] 69.9 µM | GI50 [10] 62.7 µM | GI50 [3] > 100 µM | GI50 [4] 3.67 µM | GI50 [6] 23.8 µM | GI50 [7] 56.1 µM | GI50 [8] 1.99 µM | GI50 [9] 13.2 µM

Cc1ccc(NC(=O)CCc2nc(N)nc(N)c2-c2ccccc2)cc1C
> 100 µM: TGI [1] | TGI [2] | TGI [3] | TGI [4] | TGI [5] | TGI [6] | TGI [7] | TGI [8] | TGI [9]

N#Cc1ccccc1C(Cl)(Cl)c1cnccn1
> 100 µM: TGI [2] | TGI [3] | TGI [4] | TGI [6] | TGI [8]
65.4 µM: TGI [1]

N/N=C1\C(=O)N(C2CCCCCC2)C(=O)C1C(=O)NC1CCCCCC1 (stereo not drawn)
41.6 µM: TGI [1]
45.3 µM: TGI [5]
82.7 µM: TGI [9]
> 100 µM: TGI [2] | TGI [3] | TGI [4] | TGI [6] | TGI [8]

COc1ccc(C(c2c(O)c3ccccc3n(-c3ccccc3)c2=O)c2c(O)c3ccccc3n(-c3ccccc3)c2=O)cc1
> 100 µM: TGI [1] | TGI [3] | TGI [4] | TGI [5] | TGI [6] | TGI [9]

COc1ccc(OC)c(NC(=O)CCC/C(CC(=O)c2ccc(O)c(OC)c2)=N\Nc2nnc(C)n2N)c1
> 100 µM: TGI [1] | TGI [2] | TGI [3] | TGI [4] | TGI [5] | TGI [6] | TGI [7] | TGI [8] | TGI [9]
